Laboratory results from PubChem BioAssay (NCI).
Values joined by “and” are separate entries in the source; they are usually repeats but may differ in a detail not shown here. Equal entries are not always repeated.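 Protocol summary: plate cells (96-well), add compound at 5 concentrations, incubate 48 h, interpolate endpoints linearly. GI50 = concentration required for 50% inhibition of growth. The concentration for full growth arrest is given as TGI.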

Key:
Assay in all cases: NCI anticancer screen, dose series, 48 h
OVCAR-5 ovarian = system: OVCAR-5 ovarian
OVCAR-8 ovarian = system: OVCAR-8 ovarian
MDA-N = system: MDA-N
HOP-92 NSCLC = system: HOP-92 NSCLC
786-0 renal = system: 786-0 renal
MDA-MB-231 breast = system: MDA-MB-231 breast
UACC-62 melanoma = system: UACC-62 melanoma
CAKI-1 renal = system: CAKI-1 renal
LOX IMVI melanoma = system: LOX IMVI melanoma
A549 NSCLC = system: A549 NSCLC
K-562 leukemia = system: K-562 leukemia
EKVX NSCLC = system: EKVX NSCLC
UO-31 renal = system: UO-31 renal
A498 renal = system: A498 renal
T-47D breast = system: T-47D breast
SN12C renal = system: SN12C renal
ACHN renal = system: ACHN renal
RXF 393 renal = system: RXF 393 renal
PC-3 prostate = system: PC-3 prostate
MCF7 breast = system: MCF7 breast
HT29 colon = system: HT29 colon
OVCAR-3 ovarian = system: OVCAR-3 ovarian
SNB-75 CNS = system: SNB-75 CNS
DU-145 prostate = system: DU-145 prostate
CCRF-CEM leukemia = system: CCRF-CEM leukemia
SK-MEL-5 melanoma = system: SK-MEL-5 melanoma
NCI-H226 lung = system: NCI-H226 lung
NCI-H460 lung = system: NCI-H460 lung
COLO 205 colon = system: COLO 205 colon
IGROV1 ovarian = system: IGROV1 ovarian
MDA-MB-435 = system: MDA-MB-435
SK-OV-3 ovarian = system: SK-OV-3 ovarian
M14 melanoma = system: M14 melanoma
HS 578T breast = system: HS 578T breast
HOP-62 NSCLC = system: HOP-62 NSCLC
SK-MEL-28 melanoma = system: SK-MEL-28 melanoma
KM12 colon = system: KM12 colon
TK-10 renal = system: TK-10 renal
SF-295 CNS = system: SF-295 CNS
UACC-257 melanoma = system: UACC-257 melanoma
NCI-H522 lung = system: NCI-H522 lung
SK-MEL-2 melanoma = system: SK-MEL-2 melanoma
BT-549 breast = system: BT-549 breast
NCI-H23 lung = system: NCI-H23 lung
RPMI-8226 leukemia = system: RPMI-8226 leukemia
MALME-3M melanoma = system: MALME-3M melanoma
SF-539 CNS = system: SF-539 CNS
SW-620 colon = system: SW-620 colon
MOLT-4 leukemia = system: MOLT-4 leukemia
NCI/ADR-RES ovarian = system: NCI/ADR-RES ovarian
HCT-15 colon = system: HCT-15 colon
U251 CNS = system: U251 CNS
OVCAR-4 ovarian = system: OVCAR-4 ovarian
HCT-116 colon = system: HCT-116 colon
SF-268 CNS = system: SF-268 CNS
SNB-19 CNS = system: SNB-19 CNS
HCC-2998 colon = system: HCC-2998 colon
HL-60(TB) leukemia = system: HL-60(TB) leukemia

In the case of `COC(=O)c1cc(C)n(CN(Cc2ccccc2)Cn2nc(C(=O)OC)cc2C)n1`, the TGI (OVCAR-5 ovarian) is reported as greater than 100 µM, the TGI (OVCAR-8 ovarian) is reported as greater than 100 µM and the TGI (MDA-N) is reported as greater than 100 µM. For the same compound, the TGI (HOP-92 NSCLC) was greater than 100 µM, the TGI (786-0 renal) was greater than 100 µM and the TGI (MDA-MB-231 breast) was greater than 100 µM. For the same compound, the TGI (UACC-62 melanoma) was greater than 100 µM, the TGI (CAKI-1 renal) was greater than 100 µM and the TGI (LOX IMVI melanoma) was greater than 100 µM. For the same compound, the TGI (A549 NSCLC) was greater than 100 µM, the TGI (K-562 leukemia) was greater than 100 µM and the TGI (EKVX NSCLC) was greater than 100 µM. The TGI (UO-31 renal) was greater than 92.1 µM, the TGI (A498 renal) was greater than 100 µM and the TGI (T-47D breast) was greater than 100 µM. The TGI (SN12C renal) was greater than 100 µM, the TGI (ACHN renal) was greater than 65.6 µM and the TGI (RXF 393 renal) was 98 µM. It also gave a TGI (PC-3 prostate) greater than 100 µM, a TGI (MCF7 breast) greater than 100 µM and a TGI (HT29 colon) greater than 100 µM. For the same compound, the TGI (OVCAR-3 ovarian) was greater than 100 µM, the TGI (SNB-75 CNS) was greater than 100 µM and the TGI (DU-145 prostate) was greater than 100 µM. It also gave a TGI (CCRF-CEM leukemia) greater than 67.6 µM, a TGI (SK-MEL-5 melanoma) greater than 100 µM and a TGI (NCI-H226 lung) greater than 100 µM. The TGI (NCI-H460 lung) was greater than 100 µM, the TGI (COLO 205 colon) was greater than 78.1 µM and the TGI (IGROV1 ovarian) was greater than 100 µM. The TGI (MDA-MB-435) was greater than 100 µM, the TGI (SK-OV-3 ovarian) was greater than 100 µM and the TGI (M14 melanoma) was greater than 100 µM. For the same compound, the TGI (HS 578T breast) was greater than 100 µM, the TGI (HOP-62 NSCLC) was greater than 100 µM and the TGI (SK-MEL-28 melanoma) was greater than 100 µM. For the same compound, the TGI (KM12 colon) was greater than 100 µM, the TGI (TK-10 renal) was greater than 100 µM and the TGI (SF-295 CNS) was greater than 100 µM. The TGI (UACC-257 melanoma) was greater than 100 µM, the TGI (NCI-H522 lung) was greater than 100 µM and the TGI (SK-MEL-2 melanoma) was greater than 100 µM. It also gave a TGI (BT-549 breast) greater than 100 µM, a TGI (NCI-H23 lung) greater than 100 µM and a TGI (RPMI-8226 leukemia) greater than 62.9 µM. The TGI (MALME-3M melanoma) was greater than 100 µM, the TGI (SF-539 CNS) was greater than 68.7 µM and the TGI (SW-620 colon) was greater than 78 µM. It also gave a TGI (MOLT-4 leukemia) greater than 100 µM, a TGI (NCI/ADR-RES ovarian) greater than 100 µM and a TGI (HCT-15 colon) greater than 58.2 µM. For the same compound, the TGI (U251 CNS) was greater than 100 µM, the TGI (OVCAR-4 ovarian) was greater than 100 µM and the TGI (HCT-116 colon) was greater than 59.8 µM. The TGI (SF-268 CNS) was greater than 100 µM and the TGI (SNB-19 CNS) was greater than 100 µM.

With `O=C(O)C12C3CCC(O3)C1(C(=O)O)C1CCC2O1` (centres undefined) the TGI (OVCAR-5 ovarian) was greater than 100 µM, the TGI (OVCAR-8 ovarian) was greater than 100 µM and the TGI (HCC-2998 colon) was greater than 100 µM. For the same compound, the GI50 (MDA-N) was 31.3 µM and > 100 µM, the TGI (MDA-N) was greater than 100 µM and the TGI (786-0 renal) was greater than 100 µM. For the same compound, the GI50 (MDA-MB-231 breast) was 42.2 µM and 85.8 µM, the TGI (MDA-MB-231 breast) was greater than 100 µM and the TGI (UACC-62 melanoma) was greater than 100 µM. For the same compound, the TGI (CAKI-1 renal) was greater than 100 µM, the TGI (LOX IMVI melanoma) was greater than 100 µM and the TGI (A549 NSCLC) was greater than 100 µM. It also gave a TGI (K-562 leukemia) greater than 100 µM, a TGI (UO-31 renal) greater than 100 µM and a TGI (A498 renal) greater than 100 µM. It also gave a TGI (T-47D breast) greater than 100 µM, a TGI (SN12C renal) greater than 100 µM and a TGI (ACHN renal) greater than 100 µM. The TGI (RXF 393 renal) was greater than 100 µM, the TGI (PC-3 prostate) was greater than 100 µM and the TGI (MCF7 breast) was greater than 100 µM. It also gave a TGI (HL-60(TB) leukemia) greater than 100 µM, a TGI (HT29 colon) greater than 100 µM and a TGI (OVCAR-3 ovarian) greater than 100 µM. It also gave a TGI (SNB-75 CNS) greater than 100 µM, a TGI (DU-145 prostate) greater than 100 µM and a TGI (CCRF-CEM leukemia) greater than 100 µM. For the same compound, the TGI (SK-MEL-5 melanoma) was greater than 100 µM, the TGI (NCI-H226 lung) was greater than 100 µM and the TGI (NCI-H460 lung) was greater than 100 µM. It also gave a TGI (COLO 205 colon) greater than 100 µM, a TGI (IGROV1 ovarian) greater than 100 µM and a TGI (MDA-MB-435) greater than 100 µM. The TGI (SK-OV-3 ovarian) was greater than 100 µM, the GI50 (M14 melanoma) was 16.1 µM and > 100 µM and the TGI (M14 melanoma) was 29.6 µM and > 100 µM. For the same compound, the TGI (HS 578T breast) was greater than 100 µM, the TGI (HOP-62 NSCLC) was greater than 100 µM and the TGI (SK-MEL-28 melanoma) was greater than 100 µM. It also gave a TGI (KM12 colon) greater than 100 µM, a TGI (TK-10 renal) greater than 100 µM and a TGI (SF-295 CNS) greater than 100 µM. The TGI (UACC-257 melanoma) was greater than 100 µM, the TGI (NCI-H522 lung) was greater than 100 µM and the TGI (SK-MEL-2 melanoma) was greater than 100 µM. It also gave a TGI (BT-549 breast) greater than 100 µM, a TGI (NCI-H23 lung) greater than 100 µM and a TGI (RPMI-8226 leukemia) greater than 100 µM. It also gave a TGI (MALME-3M melanoma) greater than 100 µM, a TGI (SF-539 CNS) greater than 100 µM and a TGI (SW-620 colon) greater than 100 µM. The TGI (MOLT-4 leukemia) was greater than 100 µM, the TGI (NCI/ADR-RES ovarian) was greater than 100 µM and the TGI (HCT-15 colon) was greater than 100 µM. The TGI (U251 CNS) was greater than 100 µM, the TGI (HCT-116 colon) was greater than 100 µM and the TGI (SF-268 CNS) was greater than 100 µM. It also gave a TGI (SNB-19 CNS) greater than 100 µM.
